Data set [1] is described as follows: in vivo. As to conditions: cynomolgus monkey, plasma, sc, 0.1 mg, plasma octreotide, SC injection 0.1 mg daily. As to the method:
Enteric-coated capsules containing octreotide (20 mg)/OS or olive oil were administrated daily per os to fasted monkeys for 9 months, and swallowed with 10 mL water. In addition, a 1 mL ampule containing octreotide acetate at a concentration of 0.1 mg/mL (Sandostatin®, Novartis Pharmaceuticals, East Hanover, NJ) was administered by daily subcutaneous (SC) injection to another monkeys group. Oral administration of OS in rodent studies was limited due to the lack of properly enteric coated mini-gelatin capsules. Thus, the OS, containing fluorescent marker molecules (see below) or octreotide was enterally injected via implanted cannulas.
On Day 1 and after 3, 6 and 9 months, whole-blood samples (3.0 mL) were collected at routine intervals after completion of oral octreotide dosing. Plasma octreotide levels were determined by a validated liquid chromatographic spectrometric method (PPD Laboratories, Richmond, VA) as described elsewhere ([18]). The maximum plasma concentration (Cmax) and time to Cmax (Tmax) were derived from the data. The area under the curve (AUC) from zero to the last sample with a concentration ≥LOQ [AUC(0-t)] was calculated using the linear trapezoidal method. Analysis of plasma octreotide concentration vs. time was performed using SAS® for Windows® Version 9.3. The primary pharmacokinetic end point variables (Cmax and AUC0-t) were compared using analysis of variance (ANOVA) with treatment time (1, 180, 270-d) as a within-subject (repeated measures)-factor and sex as a between-subject factor.

Data set [2] can be described thus: in vivo. As to the method: Octreotide acetate in saline was also injected subcutaneously to this animal model.
The octreotide immunoassay is based on a single-step, extraction-free, simultaneous assay procedure (Peninsula Laboratories, Division of Bachem, San Carlos, CA) designed to quantify octreotide concentrations. Briefly, octreotide standards (0.05–6.25 ng/mL) and rat plasma samples were diluted 1:10 with PBS, followed by addition of octreotide anti-rabbit antiserum antibody, biotinylated octreotide tracer, and assay buffer. Samples were washed and incubated with streptavidin–HRP. Optical density was read at a dual absorbance of 450 nm and 630 nm using an Enzyme-Linked Immunoassay (ELISA) reader (Multiskan EX Labsystems; Thermo Electron Corporation, Milford, MA) after addition of TMB solution and acidic stopping solution.
Results were expressed as mean ± SE. The area under plasma concentration–time profile measured from time zero to the last measurable plasma concentration was calculated according to the linear trapezoidal rule. Relative enteral bioavailability (rBA) following intra-jejunal administration of the OS formulation to rats was calculated compared with SC injection as follows: rBA%=AUCjejunum/AUCSC×DoseSC/Dosejejunum×100

The test system of the next data set is Cynomolgus monkeys. Description: 9-month chronic toxicity study, daily oral enteric-coated capsules. Format: in vivo, Cynomolgus monkeys (Macaca fasicularis). As to conditions: compared to the negative control group (olive oil). The method, then: During the dosing period, animals were fasted for 8 to 10 h prior to dosing, and the first feeding was given 2 h after dosing. Monkeys were observed twice daily for mortality, morbidity, and clinical signs of adverse health effects and qualitative food consumption. Weekly examinations were performed on each animal before drug administration and before terminal sacrifice. Pre-dose body weights were recorded (week −1) and weekly thereafter. Blood samples (~5 ml) were collected for hematology and serum chemistry from the femoral vein before drug administration and from surviving animals prior to the terminal necropsy.
A complete ophthalmic examination was performed on each monkey by a Diplomat of the American College of Veterinary Ophthalmologist veterinarian before animal selection/group assignment (pretest) and again, prior to study termination.
Electrocardiograms (ECGs) were obtained twice pre-study and were analyzed by a veterinary cardiologist for the presence of significant abnormalities. ECGs were also obtained following the 1st dose and at the 3, 6, and 9 months of dosing. Standard ECGs (10 Lead) were recorded at 50 mm/s. Using Lead II (or another appropriate lead), the RR, PR, and QT intervals, and QRS duration were measured and heart rate was determined. The QT interval was calculated using Bazett’s Rule. […]

These results are taken from PMC4153969, “A Novel Suspension Formulation Enhances Intestinal Absorption of Macromolecules Via Transient and Reversible Transport Mechanisms” (Pharmaceutical Research, 2014).

The term AUC(0-t) denotes the area under the concentration-time curve up to a stated or last time point.

Each structure is given as a SMILES string.

For the molecule `C[C@@H](O)[C@@H]1NC(=O)[C@H](CCCCN)NC(=O)[C@@H](Cc2c[nH]c3ccccc23)NC(=O)[C@H](Cc2ccccc2)NC(=O)[C@@H](NC(=O)[C@H](N)Cc2ccccc2)CSSC[C@@H](C(=O)N[C@H](CO)[C@@H](C)O)NC1=O` [octreotide acetate], the exposure AUC(0-t) in “in vivo [1]” (female, Day 1, female monkeys) was 64.3 ± 5.3 ng·h/mL; in “in vivo [1]” (female, Day 180, female monkeys) it was 60.8 ± 6.9 ng·h/mL; in the data set “in vivo [1]” (female, Day 270, female monkeys), 49.6 ± 3 ng·h/mL; in “in vivo [1]” (male, Day 1, male monkeys) it was 41.7 ± 8.6 ng·h/mL; in the data set “in vivo [1]” (male, Day 180, male monkeys), 46.2 ± 5.4 ng·h/mL; in “in vivo [1]” (male, Day 270, male monkeys) it was 51.3 ± 11.3 ng·h/mL. Besides, in the data set “in vivo [2]” (Sprague-Dawley, rat, plasma, sc, 0.172 mg/kg), the exposure AUC(0-t) was 205 ng·h/mL. The “change in rat plasma peptide concentrations” value in the data set “in vivo [2]” (enteral dosing in saline solution without OS, data not shown) is listed as “negligible changes”. Besides, the “clinical observation: hair and skin” value with Cynomolgus monkeys (both sexes) was “increased incidence of sparse hair and red discoloured skin”. For the same molecule, the “clinical observation: feces” value with Cynomolgus monkeys was “higher incidence of watery feces”.
